Experimental data as given in patent US20220339260A1, “METHOD FOR PRODUCING INSULIN-PRODUCING CELL USING DIHYDROINDOLIZINONE DERIVATIVES” (TOKYO INSTITUTE OF TECHNOLOGY, priority 2019, published 2022).

Tested on: SK7 mouse ES cells
Assay: Screening for β cell differentiation enhancer using SK7 mouse ES cells (Pdx1-GFP)
Format: cell-based
Procedure: The SK7 mouse ES cells were differentiated into β cells basically according to the previous report (Nakashima et al., 2015). Briefly, the cells were seeded at 5,000 cells per well in CellBIND 384-well (CORNING, 3770) cell culture plate or at 20,000 cells per well in a 96-well plate (Sigma) coated with 0.2% gelatin. Then, the cells were cultured in medium 1 from days 1 to 5. Medium 1 consisted of DMEM (high glucose) (Life Technologies, 11965092) supplemented with 0.1 mM NEAA (Gibco, 11140-50), 2 mM L-glutamine (Nacalai, 16948-04), 100 U/mL penicillin-streptomycin (Nacalai, 26252-94), 0.01 mM β-mercaptoethanol (Sigma), 1% insulin-transferrin-selenium supplement (ITS: Life Technologies, 41400045), 0.25% Albumax (Thermo Fisher, 11020021), and 10 ng/mL recombinant human activin-A (R&D Systems, 338-AC). Subsequently, the cells were cultured for 1 day in medium 2 which consisted of medium 1 supplemented with 10 μM retinoic acid (Stemgent, 04-0021). On day 6, the medium was replaced with medium 3, and the culture was continued until day 12 in order to induce differentiation into β cells. Medium 3 consisted of DMEM (low glucose) (Life Technologies, 11885084) supplemented with 0.1 mM NEAA, 2 mM L-glutamine, 100 U/mL penicillin-streptomycin, 0.1 mM β-mercaptoethanol, 1% ITS, 0.25% Albumax, and 3 mM nicotinamide (Sigma-Aldrich, N0636-500G). A test compound was added on day 8, and the cells were fixed in 4% paraformaldehyde for analysis using a high-content imager.
A chemical library consisting of about 55,000 compounds was screened for a substance that induced β cell differentiation. […] Fluorescence images were quantified using Operetta high-content imaging system and Harmony image analysis software (PerkinElmer, Germany). The nuclei were identified by DAPI staining, and the positivity of antibody staining was determined from the fluorescence intensity of a cytoplasmic region surrounding the nucleus. The number of cells positive to both insulin and GFP was counted and normalized with the total number of DAPI-positive cells or a positive area. A median of quadruple data was calculated, and screening hits were defined as states in which the number of insulin- and GFP-positive cells was increased as compared with a DMSO control. […] The activity of the selected candidate compounds was further analyzed with Toe human iPS cell assay system in order to select a hit compound having effectiveness for both differentiation into mouse β cells and differentiation into human β cells. A compound was added as described above, and its effectiveness was evaluated from a mRNA expression level by q-PCR in triplet experiments. […]

O=C1CCC(C(=O)Nc2ncc(-c3ccccc3)s2)n2cccc21 (stereo not drawn) [Synthesis Example 1, 8-Oxo-N-(5-phenylthiazol-2-yl)-6,7-dihydro-5H-indolizine-5-carboxamide] was tested, and the “number of Pdx1-GFP+Ins+ double-positive cells” value (K-1 in combination with γ-secretase inhibitor LY411575) was “further enhanced increase”, the “ratio of Pdx1-GFP+insulin+ double-positive cells” value (dose-dependent, compound added on day 8) was “increased” and the “expression of insulin 1” value (dose-dependent, mRNA normalized with Hprt1) was “increased”.
